Converted amounts (≈) assume the structure as drawn. Like-named read-outs stand apart in the source and are kept apart here. Marks after values point to notes of the source that are not given here. Starred links: 1 amine or outer side, 2 acyl side, 3 side chain; linkers in the order of their positions; H or OH if unused. Non-standard residues stand in square brackets, D forms with d. Residues, ends and D or L forms follow the SMILES beside them. Groups on a side chain read outwards from the residue. *: point of attachment. C20 diacid = O=C(O)CCCCCCCCCCCCCCCCCCC(=O)*; γGlu = O=C(O)[C@H](CCC(=O)[*:2])N[*:1]; AEEA = NCCOCCOCC(=O)O; Aib = CC(C)(N)C(=O)O
What was measured:
[1] = Viscosity (Rheosense mVroc Viscometer); type: physicochemical; details: approximately 10 mg/mL peptide in 10 mM Tris + 3 mg/mL m-cresol at pH 8.0; 25° C.; shear rate 1934 s^−1
Description: Viscosity of compounds of the present invention is measured in a Rheosense mVroc Viscometer with the following settings:
(a) Syringe size: 500 μL syringe
(b) Flow Rate: 100 μL/min flow rate
(c) Average Temperature: 25° C.
(d) Shear Rate: 1934 s^−1
Dry powder (compound) is weighed out, dissolved in water as a cloudy precipitate, and titrated to approximately pH 8.0 with 1N NaOH. The solution is sonicated and swirled by hand until peptide is in solution. Samples are sterile filtered (0.22 μm PVDF filters). Samples are then analyzed by UV-Vis to assess stock solution concentrations. Solutions are diluted to final concentration using 3× m-cresol in 10 mM Tris pH 8.0 buffer to final concentrations of approximately 10 mg/mL peptide by weight in 10 mM Tris+3 mg/mL m-cresol at pH 8.0. Samples were filtered through 0.22 μm filters immediately prior to viscosity analysis. 25 μL of sample are removed to verify concentration by RP-HPLC before and after analysis.
Water and buffer control samples are measured before and after each sample is analyzed. The instrument is washed with buffer (3×) in between analysis of each sample. The samples are loaded into individual syringes and analyzed. The first measurement is not included in the final calculation to allow for equilibration with the system. Samples are then analyzed in triplicate (n=3).
The viscosity of Compounds 1-4 was measured essentially as described in this assay.

[2] = Solubility (RP-HPLC and HPLC-SEC, 1 week at 4° C.); type: physicochemical
Description: Solubility of compounds of the present invention is measured in an Agilent 1100 HPLC, an Agilent 1200 HPLC and a Nanodrop 2000. The following HPLC columns are used:
(a) RP-HPLC: Waters Symmetry Shield C18, 3.6 um, 4.6×100 mm
(b) HPLC-SEC: Tosoh Biosciences, TSK2000SWXL […]
All peptide concentrations are made at 10 mg/mL in the following:
(a) 10 mM Tris pH 8.0+3 mg/mL m-cresol
(b) 10 mM Tris pH 8.0+3 mg/mL m-cresol+150 mM NaCl
(c) 10 mM Tris pH 8.0+3 mg/mL m-cresol+0.02% Tween-20
5 mL of 10 mg/mL peptide dissolved in 10 mM Tris at pH 8.0 is concentrated to approximately 20 mg/mL using Amicon-ultra 3 kDa MWCO devices. The solution is filtered using Millivex 0.22 μM filters (PVDF membrane) and the final concentration is measured by the NanoDrop spectrometer. This stock solution is used to formulate to the final conditions stated above using 3× m-cresol, 10× NaCl, and 100× Tween-20 stock solutions. A 10 mg/mL PBS solution is also prepared by dissolving directly at 5 mg/mL and concentrating using Amicon-ultra 3 kDa MWCO devices.
Each solution is placed in a refrigerator at 4° C. for 1 week, with analysis by RP-HPLC to assess concentration and HPLC-SEC to assess HMW species formation. Analyses completed at T-0 week and T-1 week.
The solubility of Compounds 1-4 was measured essentially as described in this assay.

hGcg-R = hGcg-R (Homo sapiens, UniProt P47871); assay: hGcg-R Binding Assay (SPA radioligand competition, 293HEK membranes); details: read-out: Ki, nM ± SEM at the hGcg-R
Human Gcg-R = target: T1, Human Gcg-R (Homo sapiens, UniProt P47871); assay: Functional hGcg-R assay (cAMP HTRF, HEK-293 clonal cell line); type: cell-based
T1 construct: expressed in transfected cells; host or cells: HEK-293 clonal cell line over-expressing the receptor
Description: (§1) After a 60 minute incubation at room temperature, the resulting increase in intracellular cAMP (adenosine 3′,5′-cyclic monophosphate) is quantitatively determined using the CisBio cAMP Dynamic 2 HTRF Assay Kit (62AM4PEJ). cAMP levels within the cell are detected by adding the cAMP-d2 conjugate in cell lysis buffer (20 μl) followed by the antibody anti-cAMP-Eu^3+-Cryptate, also in cell lysis buffer (20 μl).
(§2) A relative EC50 value and percent top (Emax) are derived by non-linear regression analysis using the percent maximal response vs. the concentration of peptide added, fitted to a four-parameter logistic equation (Genedata Screener®).
(§3) Means for EC50 are expressed as Geometric means±standard error of the mean (SEM) with the number of replicates (n) indicated in parenthesis. Means for Emax are expressed as the arithmetic mean±standard error. ND signifies that agonist activity was not detected.

DIO mice (C57BL/6) [3] = assay: Glycemic control in DIO mice; type: in vivo, mouse; details: for Blood glucose (mg/dL) post-injection, Mean: male DIO mice, 25 nmol/kg sc once
Description: Five to six months old male DIO mice (C57BL/6) from Taconic Biosciences are used in this study. Animals are individually housed in a temperature-controlled (24° C.) facility with a 12 hour light/dark cycle (lights on 6:00), and free access to food and water. After two weeks acclimation to the facility, the mice are randomized to treatment groups (n=7/group) based on their body weight and blood glucose. Mice are injected subcutaneously once with vehicle or compounds (25 nmol/kg). Blood glucose is monitored 2 and 8 hours post-injection and then once a day at 08:00 for 4 days. OGTTs are performed at 44 and 78 hours post the peptide injection. Statistics are analyzed using ANOVA with Dunnett's comparison by JMP 6. Significance is denoted at p≤0.05 vs vehicle.

DIO mice (C57BL/6) [4] = assay: Chronic treatment in DIO mice (body weight, fat, food intake); type: in vivo, mouse
Description: The effects on food intake and body weight/fat are evaluated in DIO mice. Five to six months old DIO mice (C57BL/6) from Taconic Biosciences are used in this study. Animals are individually housed in a temperature-controlled (24° C.) facility with a 12 hour light/dark cycle (lights on 6:00), and free access to food and water. The mice are acclimated to the facility for two weeks. The day before the study start, fat mass is measured by nuclear magnetic resonance (NMR) using an Echo Medical System (Houston, Tex.) instrument. The mice are randomized to treatment groups (N=7/group) based on body weight and fat mass so each group had similar starting mean body weight and fat mass. […] SC injections are made on Day 1, 4, 7, 10, and 13. Body weight and food intake are measured right before each injection throughout the study. Percent changes in body weight are calculated as follows: […]
At the completion of the study, total fat mass is measured again by NMR. Statistics are analyzed using ANOVA with Dunnett's comparison by JMP 6. Significance is denoted at p≤0.05 vs. vehicle.

hGLP-1-R [5] = target: T2, hGLP-1-R (Homo sapiens, UniProt P43220); assay: Functional hGLP-1-R assay (cAMP HTRF, HEK-293 clonal cell line); type: cell-based; set-up: expressed in transfected cells; host or cells: HEK-293 clonal cell line over-expressing the receptor
Description: as §1, §2, §3

hGLP-1-R [6] = target: T2, hGLP-1-R; assay: hGLP-1R Binding Assay (SPA radioligand competition, 293HEK membranes); set-up: expressed in transfected cells; host or cells: 293HEK, stably transfected with plasmid phD, Hygromycin-selected; crude plasma membranes; details: read-out: Ki, nM ± SEM at the hGLP-1-R
[7] = 15 nmol/kg sc every three days for 15 days
[8] = 30 nmol/kg sc every three days for 15 days

T2 sequence (P43220 24-463): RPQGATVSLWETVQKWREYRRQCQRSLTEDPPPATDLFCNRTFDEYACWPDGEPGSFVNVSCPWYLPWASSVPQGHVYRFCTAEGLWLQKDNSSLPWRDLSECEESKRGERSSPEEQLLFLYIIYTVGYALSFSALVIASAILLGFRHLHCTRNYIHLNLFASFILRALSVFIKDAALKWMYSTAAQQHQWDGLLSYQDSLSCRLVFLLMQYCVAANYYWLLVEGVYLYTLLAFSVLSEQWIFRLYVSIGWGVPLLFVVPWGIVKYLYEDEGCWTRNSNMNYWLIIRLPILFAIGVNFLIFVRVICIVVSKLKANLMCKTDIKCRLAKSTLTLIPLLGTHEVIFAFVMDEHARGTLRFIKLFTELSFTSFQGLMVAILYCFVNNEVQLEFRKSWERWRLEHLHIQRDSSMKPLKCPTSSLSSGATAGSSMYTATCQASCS
T1 sequence (P47871 26-477): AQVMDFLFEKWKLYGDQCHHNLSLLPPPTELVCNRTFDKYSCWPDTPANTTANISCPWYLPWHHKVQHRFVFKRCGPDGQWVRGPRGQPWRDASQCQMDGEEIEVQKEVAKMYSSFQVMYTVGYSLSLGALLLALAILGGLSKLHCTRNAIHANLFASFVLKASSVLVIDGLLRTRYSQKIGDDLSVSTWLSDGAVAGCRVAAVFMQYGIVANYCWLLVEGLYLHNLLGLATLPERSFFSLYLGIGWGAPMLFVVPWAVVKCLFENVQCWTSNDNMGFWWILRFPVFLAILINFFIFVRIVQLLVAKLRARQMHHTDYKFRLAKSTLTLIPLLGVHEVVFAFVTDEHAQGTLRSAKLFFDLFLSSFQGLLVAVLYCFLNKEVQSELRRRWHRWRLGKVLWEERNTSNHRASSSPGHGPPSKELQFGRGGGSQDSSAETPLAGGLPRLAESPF
Sequence of hGcg-R (P47871 26-477): as above

CC(C)C[C@H](NC(=O)[C@H](CC(C)C)NC(=O)[C@H](Cc1c[nH]c2ccccc12)NC(=O)[C@H](CCC(=O)O)NC(=O)[C@@H](NC(=O)[C@H](Cc1ccccc1)NC(=O)[C@H](CCC(=O)O)NC(=O)[C@H](CCCCNC(=O)COCCOCCNC(=O)COCCOCCNC(=O)CC[C@H](NC(=O)CC[C@H](NC(=O)CCCCCCCCCCCCCCCCCCC(=O)O)C(=O)O)C(=O)O)NC(=O)[C@H](C)NC(=O)[C@H](CCCCN)NC(=O)[C@H](CCCCN)NC(=O)[C@H](CCC(=O)O)NC(=O)[C@H](CC(=O)O)NC(=O)[C@H](CC(C)C)NC(=O)[C@H](Cc1ccc(O)cc1)NC(=O)[C@H](CCCCN)NC(=O)[C@H](CO)NC(=O)[C@H](Cc1ccc(O)cc1)NC(=O)[C@H](CC(=O)O)NC(=O)[C@H](CO)NC(=O)[C@@H](NC(=O)[C@H](Cc1ccccc1)NC(=O)[C@@H](NC(=O)CNC(=O)[C@H](CCC(N)=O)NC(=O)C(C)(C)NC(=O)[C@@H](N)Cc1c[nH]cn1)[C@@H](C)O)[C@@H](C)O)C(C)C)C(=O)N[C@@H](CO)C(=O)NCC(=O)NCC(=O)N1CCC[C@H]1C(=O)N[C@@H](CO)C(=O)N[C@@H](CO)C(=O)NCC(N)=O [Compound 4] (H-H[Aib]QGTFTSDYSKYLDEKKAK([AEEA-AEEA-γGlu-γGlu-C20 diacid])EFVEWLLSGGPSSG-NH2; N-terminus assumed)
500 μL syringe Viscosity [1]: 1.05 cP or mPa-s | solubility at 1 week ([2]; 10 mM Tris pH 8.0 + 3 mg/mL m-cresol + 0.02% Tween-20, Tris pH 8 + 3 mg/mL m-cresol + 0.02% Tween-20): 10 mg/mL | solubility at 1 week ([2]; 10 mM Tris pH 8.0 + 3 mg/mL m-cresol + 150 mM NaCl, Tris pH 8 + 3 mg/mL m-cresol + 150 mm NaCl): 10 mg/mL | solubility at 1 week ([2]; 10 mM Tris pH 8.0 + 3 mg/mL m-cresol, Tris pH 8 + 3 mg/mL m-cresol): 10 mg/mL | HMW species formation by SEC-HPLC ([2]; 1 week at 4° C.): No observed HMW species formation by SEC-HPLC; | solubility at 1 week ([2]; PBS pH 7.4, pH 7.4, read-out: solubility in PBS, pH 7.4): 10 mg/mL (≈ 2150 µM) | visible precipitation or phase separation ([2]; after 1 week storage at 4° C.): No visible precipitation or phase separation observed after 1 week | Ki (hGcg-R): 27.4 ± 3.3 nM | Emax (Human Gcg-R; HEK293): 116 ± 4% | EC50 (Human Gcg-R; cAMP, 60 minute incubation, 0.25% FBS, 0.05% BSA, geometric mean, read-out: Human Gcg-R EC50, nM ± SEM, (n)): 68.8 ± 7.2 nM | 44 hours Glucose AUC (% of Vehicle) (DIO mice (C57BL/6) [3]; OGTT 44 hours post-injection, 25 nmol/kg sc): 41* % of Vehicle | 78 hours Glucose AUC (% of Vehicle) (DIO mice (C57BL/6) [3]; OGTT 78 hours post-injection, 25 nmol/kg sc): 60* % of Vehicle | glucose excursions post an oral glucose challenge (DIO mice (C57BL/6) [3]; OGTTs at 44 and 78 hours post injection, 25 nmol/kg): lower glucose excursions post an oral glucose challenge at both time points | Blood glucose (mg/dL) post-injection, Mean (DIO mice (C57BL/6) [3]; 2 hours post-injection): 110.2 mg/dL | Blood glucose (mg/dL) post-injection, Mean (DIO mice (C57BL/6) [3]; 8 hours post-injection): 91.5 mg/dL | Blood glucose (mg/dL) post-injection, Mean (DIO mice (C57BL/6) [3]; 24 hours post-injection): 87.4 mg/dL | Blood glucose (mg/dL) post-injection, Mean (DIO mice (C57BL/6) [3]; 48 hours post-injection): 102.9 mg/dL | Blood glucose (mg/dL) post-injection, Mean (DIO mice (C57BL/6) [3]; 72 hours post-injection): 115.7 mg/dL | Blood glucose (mg/dL) post-injection, Mean (DIO mice (C57BL/6) [3]; 96 hours post-injection): 104.6 mg/dL | Body Fat (% change vs. vehicle from Day 1) (DIO mice (C57BL/6) [4]; [7]): −26* % | Body Weight (% change vs. vehicle from Day 1) (DIO mice (C57BL/6) [4]; [7]): −15* % | Body Fat (% change vs. vehicle from Day 1) (DIO mice (C57BL/6) [4]; [8]): −69* % | Body Weight (% change vs. vehicle from Day 1) (DIO mice (C57BL/6) [4]; [8]): −39* % | Emax (hGLP-1-R [5]; HEK293): 85.2 ± 6% | EC50 (hGLP-1-R [5]; cAMP, 60 minute incubation, 0.25% FBS, 0.05% BSA, geometric mean, read-out: Human GLP-1-R EC50, nM ± SEM (n)): 106 ± 18 nM | Ki (hGLP-1-R [6]): 20.2 ± 8.2 nM
